≈ marks a conversion by molar mass, not a printed value. Read-outs that look alike come from different tables or passages of the source.
Tests used:
[1] = system: M. tuberculosis H37Rv ATCC 27294; assay: Microdilution alamar blue assay (MABA); format: cell-based, Mycobacterium tuberculosis
M. bovis ATCC 19210 = assay: microbe, parasite or virus in culture; format: cell-based, Mycobacterium bovis
PK-15 cells = assay: Cytotoxicity assay (MTT); settings: for TC50: PK-15, 72 h, MTT, mean ± SD, n = 4; for MNTC: PK-15, maximum non-cytotoxic concentration (90 % cell viability)
PRRSV = assay: Antiviral assay (CPE/MTT; adsorption inhibition, infection inhibition, virucidal); format: cell-based, porcine reproductive and respiratory syndrome virus; set-up: key to IC50: “--”represent not detected owing to the low inhibition ratio; settings: PRRSV, mean±SD of four experiments
DF-1 cells = assay: Cytotoxicity assay (MTT); settings: for TC50: DF-1, 72 h, MTT, mean ± SD, n = 4; for MNTC: DF-1, maximum non-cytotoxic concentration (90 % cell viability)
IBDV = assay: Antiviral assay (CPE/MTT; adsorption inhibition, infection inhibition, virucidal); format: cell-based, infectious bursal disease virus; set-up: key to IC50: “--” represent not detected owing to the low inhibition ratio; settings: IBDV, mean±SD of four experiments
Marc-145 cells = assay: Cytotoxicity assay (MTT); settings: for TC50: Marc-145, 72 h, MTT, mean ± SD, n = 4; for MNTC: Marc-145, maximum non-cytotoxic concentration (90 % cell viability)
PPV = assay: Antiviral assay (CPE/MTT; adsorption inhibition, infection inhibition, virucidal); format: cell-based, porcine parvovirus; set-up: key to IC50: “--” represent not detected owing to the low inhibition ratio; settings: PPV, mean±SD of four experiments
[2] = Mycobacterium tuberculosis, read-out: MIC
[3] = Mycobacterium tuberculosis variant bovis, ATCC19210

| SMILES | MIC [1, 2] [µg/mL] | MIC (M. bovis ATCC 19210; [3]) [µg/mL] | MIC [1] [µg/mL] | MIC (M. bovis ATCC 19210; M. bovis ATCC 19210) [µg/mL] | TC50 (PK-15 cells) [µg/mL] | MNTC (PK-15 cells) [µg/mL] | IC50 (PRRSV; Inactivation) | IC50 (PRRSV; Prevention) | IC50 (PRRSV; Treatment) | TC50 (DF-1 cells) [µg/mL] | MNTC (DF-1 cells) [µg/mL] | IC50 (IBDV; Inactivation) | IC50 (IBDV; Prevention) | IC50 (IBDV; Treatment) | TC50 (Marc-145 cells) [µg/mL] | MNTC (Marc-145 cells) [µg/mL] | IC50 (PPV; Inactivation) | IC50 (PPV; Prevention) | IC50 (PPV; Treatment) |
| --- | --- | --- | --- | --- | --- | --- | --- | --- | --- | --- | --- | --- | --- | --- | --- | --- | --- | --- | --- |
| NCC[C@H](O)C(=O)N[C@@H]1C[C@H](N)[C@@H](O[C@H]2O[C@H](CN)[C@@H](O)[C@H](O)[C@H]2O)[C@H](O)[C@H]1O[C@H]1O[C@H](CO)[C@@H](O)[C@H](N)[C@H]1O [Amikacin] | 3.2 (≈ 5.46 µM) | 1.6 (≈ 2.73 µM) |  |  |  |  |  |  |  |  |  |  |  |  |  |  |  |  |  |
| CC[C@@H](CO)NCCN[C@@H](CC)CO [Ethambutol, ethambutol] | 0.025 (≈ 0.122 µM) | 0.025 (≈ 0.122 µM) |  |  |  |  |  |  |  |  |  |  |  |  |  |  |  |  |  |
| NC[C@H]1O[C@H](O[C@H]2[C@H](O)[C@@H](O[C@H]3O[C@H](CO)[C@@H](O)[C@H](N)[C@H]3O)[C@H](N)C[C@@H]2N)[C@H](O)[C@@H](O)[C@@H]1O [Kanamycin] |  |  | 0.2 (≈ 0.413 µM) | 0.2 (≈ 0.413 µM) |  |  |  |  |  |  |  |  |  |  |  |  |  |  |  |
| Cc1c(C(C)O)nc2ccccc2[n+]1[O-] (stereo not shown) [M4, carbonyl reduction N1-deoxy mequindox] |  |  |  |  | 40.81 ± 1.27 (≈ 200 µM) | 3.9 | -- | -- | -- | 37.75 ± 2.68 (≈ 185 µM) | 1.0 | -- | -- | -- | 128.62 ± 2.67 (≈ 630 µM) | 3.9 | -- | -- | -- |
| Cc1nc2ccccc2nc1C(C)O (stereo not shown) [M5, carbonyl reduction bi-deoxy mequindox] |  |  |  |  | 40.41 ± 3.21 (≈ 215 µM) | 2.0 | -- | -- | -- | 38.2 ± 2.09 (≈ 203 µM) | 2.0 | -- | -- | -- | 89.66 ± 2.14 (≈ 476 µM) | 2.0 | -- | -- | -- |
| Cc1c(C(C)O)[n+]([O-])c2ccccc2[n+]1[O-] (stereo not shown) [M6, carbonyl reduction mequindox] |  |  |  |  | 78.82 ± 3.57 (≈ 358 µM) | 2.0 | -- | -- | -- | 41.26 ± 1.27 (≈ 187 µM) | 2.0 | -- | -- | -- | 89.82 ± 1.57 (≈ 408 µM) | 2.0 | -- | -- | -- |
| NC(=O)c1cnccn1 [Pyrazinamide, pyrazinamide] | 0.8 (≈ 6.5 µM) | 0.8 (≈ 6.5 µM) |  |  |  |  |  |  |  |  |  |  |  |  |  |  |  |  |  |
| [H]/N=C(/N)N[C@H]1[C@H](O)[C@@H](O)[C@H](O[C@@H]2O[C@@H](C)[C@](O)(C=O)[C@H]2O[C@@H]2O[C@@H](CO)[C@H](O)[C@@H](O)[C@@H]2NC)[C@@H](N/C(N)=N\[H])[C@@H]1O [Streptomycin, streptomycin] | 0.025 (≈ 0.043 µM) | 0.013 (≈ 0.0224 µM) |  |  |  |  |  |  |  |  |  |  |  |  |  |  |  |  |  |
